Data as given in US12157730B2, “Heteroaryl derivative, method for producing same, and pharmaceutical composition comprising same as effective component” (VORONOI INC., priority 2019, dated 2024).

Target: T1, Ba/F3 cell EGFR Exon20 ins NPH (Homo sapiens, UniProt P00533, INS773NPH)
T1 construct: expressed in transfected cells; host or cells: Ba/F3
Experiment: Ba/F3 cell proliferation suppression, EGFR Exon20 ins NPH
Type: cell-based
Conditions: GI50 class; Ba/F3 cell line with NPH inserted at Exon20 of EGFR; 72 hours
Procedure, shortened: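 After 72 h compound exposure (twelve 3-fold steps, 0.3 nM–50 um final), live cells were measured by CellTiter-Glo luminescence and growth expressed as % of control to derive GI50. Cells were seeded at 3000–5000 per well a day earlier; Ba/F3 medium contained IL-3; three repeats.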

Row | SMILES | Ba/F3 (NPH) Activity
1 | C=CC(=O)Nc1cc(Nc2cc(N3OCC[C@@H]3c3ccc(C)nc3)ncn2)c(OC)cc1N1CCC(N2CCN(C(C)=O)CC2)CC1 [Example 232, N-(2-(4-(4-acetylpiperazine-1-yl)piperidine-1-yl)-4-methoxy-5-((6-((R)-3-(6-methylpyridine-3-yl)isoxazolidine-2-yl)pyrimidine-4-yl)amino)phenyl) acrylamide] | B (50 nM ≤ GI50 < 500 nM)
2 | C=CC(=O)Nc1cc(Nc2cc(N3OCC[C@@H]3c3c(F)ccc(F)c3Cl)ncn2)c(OC)cc1N1CCC(N2CCN(C3CC3)[C@@H](C)C2)CC1 [compound 934, N-(5-((6-((R)-3-(2-chloro-3,6-difluorophenyl)isoxazolidine-2-yl)pyrimidine-4-yl)amino)-2-(4-((S)-4-cyclopropyl-3-methylpiperazine-1-yl)piperidine-1-yl)-4-methoxyphenyl) acrylamide] | A (GI50 < 50 nM)
3 | C=CC(=O)Nc1cc(Nc2cc(N3OCC[C@@H]3c3ccc(F)c(Cl)c3F)ncn2)c(OC)cc1N1CCC(N2CCN(C3CC3)CC2)CC1 [Example 168] | A (GI50 < 50 nM)
4 | C=CC(=O)Nc1cc(Nc2cc(N3OCC[C@@H]3c3ccc(Cl)c(Cl)c3F)ncn2)c(OC)cc1N1CC[C@H](N2CCOCC2)C1 [Example 295, N-(5-((6-((R)-3-(3,4-dichloro-2-fluorophenyl)isoxazolidine-2-yl)pyrimidine-4-yl)amino)-4-methoxy-2-((S)-3-morpholinopyrolidine-1-yl)phenyl)acrylamide] | C (500 nM ≤ GI50 < 5000 nM)
5 | C=CC(=O)Nc1cc(Nc2cc(N3OCC[C@@H]3c3ccc(F)c(F)c3F)ncn2)c(OC)cc1N(C)CCN(C)C [compound 571, N-(2-((2-(dimethylamino)ethyl) (methyl)amino)-4-methoxy-5-((6-((R)-3-(2,3,4-trifluorophenyl)isoxazolidine-2-yl)pyrimidine-4-yl)amino)phenyl) acrylamide] | A (GI50 < 50 nM)
6 | C=CC(=O)Nc1cc(Nc2cc(N3OCC[C@@H]3Cc3cccnc3)ncn2)c(OC)cc1N1CCC(N2C[C@H]3C[C@@H]2CO3)CC1 [compound 987, N-(2-(4-((1R,4R)-2-oxa-5-azabicyclo [2.2.1]heptane-5-yl)piperidine-1-yl)-4-methoxy-5-((6-((S)-3-(pyridine-3-ylmethyl)isoxazolidine-2-yl)pyrimidine-4-yl)amino)phenyl)acrylamide] | C (500 nM ≤ GI50 < 5000 nM)
7 | C=CC(=O)Nc1cc(Nc2cc(N3OCC[C@H]3c3c(F)ccc(F)c3Cl)ncn2)c(OC)cc1N1CCC(N2CCN(C3CC3)CC2)CC1 [compound 936, N-(5-((6-((S)-3-(2-chloro-3,6-difluorophenyl)isoxazolidine-2-yl)pyrimidine-4-yl)amino)-2-(4-(4-cyclopropylpiperazine-1-yl)piperidine-1-yl)-4-methoxyphenyl) acrylamide] | B (50 nM ≤ GI50 < 500 nM)
8 | C=CC(=O)Nc1cc(Nc2cc(N3OCC[C@@H]3c3ccc(Cl)c(Cl)c3)ncn2)c(OC)cc1N1CCN(C2CC2)CC1 [compound 673, N-(2-(4-cyclopropylpiperazine-1-yl)-5-((6-((R)-3-(3,4-dichlorophenyl)isoxazolidine-2-yl)pyrimidine-4-yl)amino)-4-methoxyphenyl) acrylamide] | A (GI50 < 50 nM)
9 | C=CC(=O)Nc1cc(Nc2cc(N3OCC[C@@H]3c3ccc(F)c(F)c3F)ncn2)c(OC)cc1N1CCC(N2CCOCC2)CC1 [compound 621, N-(4-methoxy-2-(4-morpholinopiperidine-1-yl)-5-((6-((R)-3-(2,3,4-trifluorophenyl)isoxazolidine-2-yl)pyrimidine-4-yl)amino)phenyl)acrylamide] | A (GI50 < 50 nM)
